Measurements published in ChEMBL document CHEMBL1201862, “PubChem BioAssay data set” (2004).
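Values below derive from 48-hour exposures of cells grown in 96-well plates, with endpoints linearly interpolated between the two concentrations bracketing the appropriate inhibition level. GI50: concentration for 50% inhibition of growth.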 Activity calls are given as the source filed them. Cut-off read from the data, not from the text of the source: active = GI50 up to about 1.1 µM and inactive = higher.

How the values were obtained:
Assay in all cases: NCI-60 cell line screen, 48 h
OVCAR-4 = test system: OVCAR-4
SK-MEL-5 = test system: SK-MEL-5
NCI-H23 = test system: NCI-H23
UACC-257 = test system: UACC-257
Malme-3M = test system: Malme-3M
MDA-MB-231 = test system: MDA-MB-231
KM12 = test system: KM12
CAKI-1 = test system: CAKI-1
NCI-H460 = test system: NCI-H460
MCF7 = test system: MCF7
MDA-N = test system: MDA-N
CCRF-CEM = test system: CCRF-CEM
DU-145 = test system: DU-145
OVCAR-3 = test system: OVCAR-3
HCC 2998 = test system: HCC 2998
SF-295 = test system: SF-295
SF-539 = test system: SF-539
MDA-MB-435 = test system: MDA-MB-435
T47D = test system: T47D
HOP-92 = test system: HOP-92

## CC(C)c1ccc2nc3ccc(C(=O)NCCN4CCN(c5ccccc5)CC4)cn3c(=O)c2c1
OVCAR-4
  GI50: > 100 µM (inactive)
SK-MEL-5
  GI50: 2.58 µM (inactive)
NCI-H23
  GI50: 7.73 µM (inactive)
UACC-257
  GI50: 4.67 µM (inactive)
Malme-3M
  GI50: 1.85 µM (inactive)
MDA-MB-231
  GI50: > 100 µM (inactive)
KM12
  GI50: 20.2 µM (inactive)
CAKI-1
  GI50: 5.06 µM (inactive)
NCI-H460
  GI50: 4.3 µM (inactive)
MCF7
  GI50: 10 µM (inactive)
MDA-N
  GI50: 4.6 µM (inactive)
CCRF-CEM
  GI50: 2.24 µM (inactive)
DU-145
  GI50: > 100 µM (inactive)
OVCAR-3
  GI50: > 100 µM (inactive)
HCC 2998
  GI50: 11.1 µM (inactive)
SF-295
  GI50: 2.22 µM (inactive)

## Nn1c(=S)[nH]nc(/C=C/c2c(O)ccc3ccccc23)c1=O
OVCAR-4
  GI50: 4.06 µM (inactive)
SK-MEL-5
  GI50: 10.2 µM (inactive)
NCI-H23
  GI50: 3.24 µM (inactive)
SF-539
  GI50: 19.3 µM (inactive)
UACC-257
  GI50: 5.3 µM (inactive)
MDA-MB-435
  GI50: 13.2 µM (inactive)
Malme-3M
  GI50: 12.2 µM (inactive)
KM12
  GI50: 6.12 µM (inactive)
CAKI-1
  GI50: 5.55 µM (inactive)
NCI-H460
  GI50: 4.58 µM (inactive)
MCF7
  GI50: 2.72 µM (inactive)
MDA-N
  GI50: 12.3 µM (inactive)
CCRF-CEM
  GI50: 1.92 µM (inactive)
DU-145
  GI50: 12.1 µM (inactive)
OVCAR-3
  GI50: 3.13 µM (inactive)
HCC 2998
  GI50: 7.5 µM (inactive)
SF-295
  GI50: 8.85 µM (inactive)
T47D
  GI50: 3.97 µM (inactive)

## O=C1CC2(CCN(CC3COc4ccccc4O3)CC2)C(=O)N1N1CCCCCC1 (stereo unspecified)
OVCAR-4
  GI50: 33.6 µM (inactive)
SK-MEL-5
  GI50: 22.7 µM (inactive)
NCI-H23
  GI50: 16.9 µM (inactive)
SF-539
  GI50: > 100 µM (inactive)
UACC-257
  GI50: 13.9 µM (inactive)
MDA-MB-435
  GI50: 40 µM (inactive)
Malme-3M
  GI50: 94.4 µM (inactive)
MDA-MB-231
  GI50: > 100 µM (inactive)
CAKI-1
  GI50: > 100 µM (inactive)
MCF7
  GI50: 37.2 µM (inactive)
HOP-92
  GI50: 87.3 µM (inactive)
CCRF-CEM
  GI50: 29.4 µM (inactive)
DU-145
  GI50: 32.7 µM (inactive)
OVCAR-3
  GI50: > 100 µM (inactive)
SF-295
  GI50: 71.1 µM (inactive)
T47D
  GI50: 33.7 µM (inactive)

## O=C(NCCCCNCCCNC(=O)C(F)(F)F)C(F)(F)F
OVCAR-4
  GI50: > 100 µM (inactive)
SK-MEL-5
  GI50: > 100 µM (inactive)
NCI-H23
  GI50: > 100 µM (inactive)
SF-539
  GI50: > 100 µM (inactive)
UACC-257
  GI50: > 100 µM (inactive)
MDA-MB-435
  GI50: > 100 µM (inactive)
MDA-MB-231
  GI50: > 100 µM (inactive)
KM12
  GI50: > 100 µM (inactive)
CAKI-1
  GI50: > 100 µM (inactive)
NCI-H460
  GI50: > 100 µM (inactive)
MCF7
  GI50: > 100 µM (inactive)
HOP-92
  GI50: > 100 µM (inactive)
CCRF-CEM
  GI50: > 100 µM (inactive)
DU-145
  GI50: > 100 µM (inactive)
OVCAR-3
  GI50: > 100 µM (inactive)
HCC 2998
  GI50: > 100 µM (inactive)
SF-295
  GI50: 32.6 µM (inactive)
T47D
  GI50: > 100 µM (inactive)

## CCn1c(CCl)nc2c1C(=O)c1ccccc1C2=O
OVCAR-4
  GI50: 1.66 µM (inactive)
SK-MEL-5
  GI50: 0.42 µM (active)
NCI-H23
  GI50: 1.4 µM (inactive)
SF-539
  GI50: 2.23 µM (inactive)
UACC-257
  GI50: 1.67 µM (inactive)
MDA-MB-435
  GI50: 1.69 µM (inactive)
Malme-3M
  GI50: 1.04 µM (active)
KM12
  GI50: 1.73 µM (inactive)
NCI-H460
  GI50: 1.98 µM (inactive)
MCF7
  GI50: 1.87 µM (inactive)
MDA-N
  GI50: 2.17 µM (inactive)
HOP-92
  GI50: 2.14 µM (inactive)
CCRF-CEM
  GI50: 0.171 µM (active)
DU-145
  GI50: 2.67 µM (inactive)
OVCAR-3
  GI50: 1.69 µM (inactive)
HCC 2998
  GI50: 1.56 µM (inactive)
SF-295
  GI50: 1.88 µM (inactive)
T47D
  GI50: 1.95 µM (inactive)

## O=C(OCc1ccccc1)N1CCCc2c(n(S(=O)(=O)c3ccccc3)c3ccccc23)C1
OVCAR-4
  GI50: > 100 µM (inactive)
SK-MEL-5
  GI50: > 100 µM (inactive)
NCI-H23
  GI50: > 100 µM (inactive)
SF-539
  GI50: > 100 µM (inactive)
UACC-257
  GI50: > 100 µM (inactive)
Malme-3M
  GI50: 57.9 µM (inactive)
MDA-MB-231
  GI50: > 100 µM (inactive)
KM12
  GI50: > 100 µM (inactive)
CAKI-1
  GI50: > 100 µM (inactive)
NCI-H460
  GI50: > 100 µM (inactive)
MCF7
  GI50: > 100 µM (inactive)
MDA-N
  GI50: > 100 µM (inactive)
HOP-92
  GI50: > 100 µM (inactive)
DU-145
  GI50: > 100 µM (inactive)
OVCAR-3
  GI50: > 100 µM (inactive)
SF-295
  GI50: 36.6 µM (inactive)
T47D
  GI50: 14.2 µM (inactive)

## Cc1cc(NN)nc2[nH]nc(N)c12
OVCAR-4
  GI50: > 100 µM (inactive)
SK-MEL-5
  GI50: > 100 µM (inactive)
NCI-H23
  GI50: > 100 µM (inactive)
SF-539
  GI50: > 100 µM (inactive)
UACC-257
  GI50: > 100 µM (inactive)
MDA-MB-435
  GI50: 93.1 µM (inactive)
Malme-3M
  GI50: > 100 µM (inactive)
MDA-MB-231
  GI50: 45.4 µM (inactive)
KM12
  GI50: > 100 µM (inactive)
CAKI-1
  GI50: > 100 µM (inactive)
NCI-H460
  GI50: > 100 µM (inactive)
MCF7
  GI50: > 100 µM (inactive)
HOP-92
  GI50: > 100 µM (inactive)
CCRF-CEM
  GI50: > 100 µM (inactive)
DU-145
  GI50: > 100 µM (inactive)
OVCAR-3
  GI50: > 100 µM (inactive)
SF-295
  GI50: > 100 µM (inactive)
T47D
  GI50: > 100 µM (inactive)

## C/C(=N/NC(=S)N1CCCC1)c1cccc(/C(C)=N\NC(=S)N2CCCC2)n1
SK-MEL-5
  GI50: 1.36 µM (inactive)
NCI-H23
  GI50: 1.88 µM (inactive)
SF-539
  GI50: 1.36 µM (inactive)
MDA-MB-435
  GI50: 1.43 µM (inactive)
Malme-3M
  GI50: 1.84 µM (inactive)
MDA-MB-231
  GI50: 0.046 µM (active)
KM12
  GI50: 1.22 µM (inactive)
CAKI-1
  GI50: 1.28 µM (inactive)
NCI-H460
  GI50: 1.06 µM (active)
MDA-N
  GI50: 1.38 µM (inactive)
CCRF-CEM
  GI50: 0.0667 µM (active)
DU-145
  GI50: 2.61 µM (inactive)
OVCAR-3
  GI50: 0.0973 µM (active)
HCC 2998
  GI50: 1.21 µM (inactive)
SF-295
  GI50: 0.548 µM (active)

## CN1COCc2cc3cc4c(cc3nc21)OCCO4
OVCAR-4
  GI50: > 100 µM (inactive)
SK-MEL-5
  GI50: 39.5 µM (inactive)
SF-539
  GI50: > 100 µM (inactive)
UACC-257
  GI50: > 100 µM (inactive)
MDA-MB-435
  GI50: > 100 µM (inactive)
Malme-3M
  GI50: 30 µM (inactive)
MDA-MB-231
  GI50: > 100 µM (inactive)
KM12
  GI50: 41.5 µM (inactive)
CAKI-1
  GI50: 94.6 µM (inactive)
NCI-H460
  GI50: 44.8 µM (inactive)
MCF7
  GI50: 21.2 µM (inactive)
MDA-N
  GI50: > 100 µM (inactive)
HOP-92
  GI50: 38.8 µM (inactive)
CCRF-CEM
  GI50: 81.7 µM (inactive)
HCC 2998
  GI50: > 100 µM (inactive)
SF-295
  GI50: > 100 µM (inactive)

## Cc1cc2c3c(ccc4[nH]cc(c43)CN2c2ccc(NS(C)(=O)=O)cc2)n1
OVCAR-4
  GI50: > 100 µM (inactive)
SK-MEL-5
  GI50: > 100 µM (inactive)
NCI-H23
  GI50: 20.8 µM (inactive)
UACC-257
  GI50: > 100 µM (inactive)
MDA-MB-435
  GI50: > 100 µM (inactive)
MDA-MB-231
  GI50: 22 µM (inactive)
KM12
  GI50: > 100 µM (inactive)
CAKI-1
  GI50: 25.9 µM (inactive)
NCI-H460
  GI50: 91.6 µM (inactive)
MCF7
  GI50: 65 µM (inactive)
MDA-N
  GI50: > 100 µM (inactive)
HOP-92
  GI50: 24.5 µM (inactive)
CCRF-CEM
  GI50: 8.41 µM (inactive)
DU-145
  GI50: 49.1 µM (inactive)
OVCAR-3
  GI50: 21.2 µM (inactive)
HCC 2998
  GI50: 30.2 µM (inactive)
SF-295
  GI50: 51.9 µM (inactive)

## C=C(CN(C)C)C(=O)c1ccccc1OC
OVCAR-4
  GI50: 20.6 µM (inactive)
SK-MEL-5
  GI50: 17.1 µM (inactive)
NCI-H23
  GI50: 17.9 µM (inactive)
SF-539
  GI50: 15.6 µM (inactive)
UACC-257
  GI50: 15.6 µM (inactive)
MDA-MB-435
  GI50: 19.5 µM (inactive)
Malme-3M
  GI50: 7.66 µM (inactive)
MDA-MB-231
  GI50: 14.4 µM (inactive)
KM12
  GI50: 25.3 µM (inactive)
CAKI-1
  GI50: 9.82 µM (inactive)
NCI-H460
  GI50: 38.1 µM (inactive)
MDA-N
  GI50: 18.2 µM (inactive)
HOP-92
  GI50: 14.7 µM (inactive)
CCRF-CEM
  GI50: 2.51 µM (inactive)
DU-145
  GI50: > 45 µM (inactive)
OVCAR-3
  GI50: 16 µM (inactive)
HCC 2998
  GI50: 34.6 µM (inactive)
SF-295
  GI50: > 56.9 µM (inactive)
T47D
  GI50: 15 µM (inactive)

## CC(=O)C1C(=O)C(=O)N(c2ccc([N+](=O)[O-])cc2)C1=O (stereo unspecified)
OVCAR-4
  GI50: > 100 µM (inactive)
SK-MEL-5
  GI50: > 100 µM (inactive)
NCI-H23
  GI50: > 100 µM (inactive)
SF-539
  GI50: > 100 µM (inactive)
UACC-257
  GI50: > 100 µM (inactive)
MDA-MB-435
  GI50: > 100 µM (inactive)
MDA-MB-231
  GI50: > 100 µM (inactive)
KM12
  GI50: > 100 µM (inactive)
CAKI-1
  GI50: > 100 µM (inactive)
NCI-H460
  GI50: > 100 µM (inactive)
MCF7
  GI50: > 100 µM (inactive)
MDA-N
  GI50: > 100 µM (inactive)
HOP-92
  GI50: > 100 µM (inactive)
CCRF-CEM
  GI50: > 100 µM (inactive)
DU-145
  GI50: > 100 µM (inactive)
OVCAR-3
  GI50: > 100 µM (inactive)
HCC 2998
  GI50: > 100 µM (inactive)
SF-295
  GI50: > 100 µM (inactive)
